These results are taken from publication PMC8762745 (ACS Medicinal Chemistry Letters, 2021).

In this experiment the target is T1, human TAAR1 receptor (Homo sapiens, UniProt Q96RJ0).
T1 sequence (Q96RJ0 1-339): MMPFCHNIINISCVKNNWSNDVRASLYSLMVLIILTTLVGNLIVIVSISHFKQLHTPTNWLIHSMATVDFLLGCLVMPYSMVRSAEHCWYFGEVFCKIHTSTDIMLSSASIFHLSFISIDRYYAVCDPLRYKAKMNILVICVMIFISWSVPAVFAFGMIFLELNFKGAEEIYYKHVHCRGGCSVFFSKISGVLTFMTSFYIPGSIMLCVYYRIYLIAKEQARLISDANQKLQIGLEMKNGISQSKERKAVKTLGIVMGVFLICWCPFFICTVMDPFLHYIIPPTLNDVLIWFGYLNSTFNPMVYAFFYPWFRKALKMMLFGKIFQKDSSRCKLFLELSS
The experiment can be described thus: Human TAAR1 agonist assay. The conditions noted are these: for fold less potent for TAAR1 than racemic ulotaront 20: EC50 ratio versus racemic ulotaront 20; for fold less active for TAAR1 than β-PEA (2): EC50 ratio versus β-PEA (2).

Turning to `CNC[C@]1(C)OCCc2ccsc21` [compound 21], the “fold less potent for TAAR1 than ulotaront” value is > 1000 fold.

In the case of `CNC[C@@H]1OCCc2sccc21` [compound 29], the “fold less potent for TAAR1 than ulotaront” value is 3 fold.

In the case of `CNCC1OCCCc2ccsc21` (stereo not shown) [compound 26], the “fold less potent for TAAR1 than racemic ulotaront 20” value is “approximately 6 fold”.

For the compound `CNCC1OCCc2cscc21` (stereo not shown) [compound 28], the “fold less potent for TAAR1 than racemic ulotaront 20” value was ~6 fold.

For the compound `NC[C@@H](O)c1ccc(O)cc1` [6b, (+)-octopamine, reference compound], the “fold less active for TAAR1 than p-tyramine (4)” value is 54 fold.

On to `NCC1OCCCc2ccsc21` (stereo not shown) [compound 27], for which the “fold more potent for TAAR1 compared to 26” value (EC50 ratio versus 26) is “about 5 fold”.

For the compound `NC[C@@H]1OCCc2ccsc21` [compound 22], the “fold more potent for TAAR1 than ulotaront” value is recorded as “about 11 fold”.

As for `CNC[C@H](O)c1ccc(O)cc1` [7a, (−)-synephrine, reference compound], under “EC50 ratio versus (−)-octopamine 6a”, the “fold reduced TAAR1 activity compared to 6a” value was “approximately 3 fold”.

As to `c1cc2c(s1)[C@H](CN1CCCC1)OCC2` [compound 24], the “fold less potent for TAAR1 than ulotaront” value stood at 189 fold.

As for `NCCc1c[nH]c2ccccc12` [compound 10, tryptamine, reference compound], the “fold less active for TAAR1 than β-PEA (2)” value (shortened to “fold less active … (2)”) is reported as “about 150 fold”.

Take `NCCc1ccc(O)cc1` [compound 4, p-tyramine, reference compound]: the “fold less active … (2)” value is reported as “about 5 fold”.

Turning to `NCCc1cccs1` [compound 30, thiophen-2-ylethanamine], the “fold more potent for TAAR1 than the other ring opened thiophene (31)” value (EC50 ratio versus 31) is “approximately 3 fold”.

With `CNCCc1ccccc1` [compound 3, N-methylphenethylamine, reference compound], the “fold less active … (2)” value is given as “approximately 10 fold”.

For the compound `NCC[C@@H]1OCCc2ccsc21` [compound 25], the “fold reduced TAAR1 activity compared to N-demethylated analogue 22” value (EC50 ratio versus 22) is on record as 67 fold.

`NCCc1cccc(O)c1` [compound 5, m-tyramine, reference compound]: the “fold less active … (2)” value is given as ~23 fold.

With `NC[C@H](O)c1ccc(O)cc1` [6a, (−)-octopamine, reference compound], the “fold less active for TAAR1 than p-tyramine (4)” value is 21 fold.
